Values after ≈ are worked out from the molar mass of the structure shown. Like-named read-outs stand apart in the source and are kept apart here.
Key:
[1] = system: A. flavus NRRL 6541; test: In vitro antifungal activity, agar dilution MIC; assay type: cell-based; details: Aspergillus flavus
Method: (§1) Minimal inhibitory concentrations (MICs) were determined by an agar dilution method. The test compounds were serially diluted in MeOH and 0.2 ml portions were mixed with 20 ml of molten, cooled Sabouraud dextrose agar (Difco). Yeast cell inoculum was prepared by growing cultures on Sabouraud dextrose agar for 18 hours at 32° C. and suspending the cells in phosphate buffered saline. Filamentous fungi were grown under the same conditions for 4 days to obtain spores. The inoculum level for all cultures was adjusted to 10^4 cells using a Petroff-Hauser cell counter. The glutarimide antifungal compound cycloheximide was used as a control. Inoculated test plates were incubated at 32° C. and examined after 20 hours.

[2] = system: Aspergillus niger ATCC 16404; test: In vitro antifungal activity, agar dilution MIC; assay type: cell-based
Method: as §1

[3] = system: Candida albicans 579A; test: In vitro antifungal activity, agar dilution MIC; assay type: cell-based
Method: as §1

[4] = system: Saccharomyces cereviseae GS1-36; test: In vitro antifungal activity, agar dilution MIC; assay type: cell-based
Method: as §1

[5] = system: A. fumigatus ATCC 26430; test: In vitro antifungal activity, agar dilution MIC; assay type: cell-based; details: Aspergillus fumigatus
Method: as §1

[6] = system: Candida albicans ATCC 38247; test: In vitro antifungal activity, agar dilution MIC; assay type: cell-based
Method: as §1

[7] = system: Candida tropicalis NRRL-Y-112; test: In vitro antifungal activity, agar dilution MIC; assay type: cell-based
Method: as §1

[8] = system: Candida albicans ATCC 10231; test: In vitro antifungal activity, agar dilution MIC; assay type: cell-based
Method: as §1

[9] = system: A. parasiticus NRRL 13539; test: In vitro antifungal activity, agar dilution MIC; assay type: cell-based; details: Aspergillus parasiticus
Method: as §1

[10] = system: F. solani AARC 0353; test: In vitro antifungal activity, agar dilution MIC; assay type: cell-based; details: Fusarium solani
Method: as §1

[11] = system: Torulopsis glabrata ATCC 15545; test: In vitro antifungal activity, agar dilution MIC; assay type: cell-based; details: Nakaseomyces glabratus
Method: as §1

[12] = system: Fusarium moniliforme AARC 0397; test: In vitro antifungal activity, agar dilution MIC; assay type: cell-based; details: Fusarium verticillioides
Method: as §1

[13] = Solubility; assay type: physicochemical
[14] = system: K-ras-transformed NIH/3T3 mouse fibroblasts; test: In vitro antitumor activity: transformed foci / morphology reversion; assay type: cell-based; details: for activity at 0.4 µg/mL: compound dose 0.4 μg/ml; for morphology reversion of transformed cells: microscopic examination
Method: Transformed cells are typically rounded when the mutant ras gene is expressed. Normal cells, on the other hand, are flat and adhere to the bottom of a tissue culture plate.
Normal and transformed NIH/3T3 cells were cultured in Dulbecco's modified Eagle medium containing 10% fetal bovine serum, and gentamicin 50 μg/ml at 37° C. in 5% CO2. Ras transformants also contained […] G418. To test the effect of Dorrigocins, 2×10^4 cells were added to 24 well microtiter plates and incubated for 24 hours at 37° C. when the cells had uniformly adhered to the microtiter tray, various concentrations of Dorrigocin A and B dissolved in DMSO, were added and the plates incubated at 37° C. for an additional 48 hours. Cellular morphology was examined microscopically and the average number of transformed foci per field was determined by counting at least 6 separate fields. These foci represent transformed cells that were unaffected by the addition of compound.

[15] = NRRL6541, Sabouraud dextrose agar, 32° C., 20 hours, read-out: MIC
[16] = ATCC16404, Sabouraud dextrose agar, 32° C., 20 hours, read-out: MIC
[17] = Sabouraud dextrose agar, 32° C., 20 hours, read-out: MIC
[18] = GS136, Sabouraud dextrose agar, 32° C., 20 hours, read-out: MIC
[19] = ATCC26430, Sabouraud dextrose agar, 32° C., 20 hours, read-out: MIC
[20] = ATCC38247, Sabouraud dextrose agar, 32° C., 20 hours, read-out: MIC
[21] = NRRLY112, Sabouraud dextrose agar, 32° C., 20 hours, read-out: MIC
[22] = ATCC10231, Sabouraud dextrose agar, 32° C., 20 hours, read-out: MIC
[23] = NRRL13539, Sabouraud dextrose agar, 32° C., 20 hours, read-out: MIC
[24] = AARC0353, Sabouraud dextrose agar, 32° C., 20 hours, read-out: MIC
[25] = ATCC15545, Sabouraud dextrose agar, 32° C., 20 hours, read-out: MIC
[26] = AARC0397, Sabouraud dextrose agar, 32° C., 20 hours, read-out: MIC
[27] = Mus musculus, NIH3T3, 48 hours, untreated NIH/3T3 K-ras = 100, read-out: Transformed foci percentage

C[C@@H]1C[C@@H]([C@H](O)CC2CC(=O)NC(=O)C2)C(=O)[C@@H](C)C1 [Cycloheximide, cycloheximide, reference compound]
MIC ([1]; NRRL6541, 20 h): 50 µg/mL (≈ 178 µM) | MIC ([2]; ATCC16404, 20 h): 1.6 µg/mL (≈ 5.69 µM) | MIC ([3]; 20 h): > 100 µg/mL | MIC ([4]; GS136, 20 h): < 0.05 µg/mL | MIC ([5]; ATCC26430, 20 h): 1.6 µg/mL (≈ 5.69 µM) | MIC ([6]; ATCC38247, 20 h): > 100 µg/mL | MIC ([7]; NRRLY112, 20 h): 0.4 µg/mL (≈ 1.42 µM) | MIC ([8]; ATCC10231, 20 h): > 100 µg/mL | MIC ([9]; NRRL13539, 20 h): 25 µg/mL (≈ 88.9 µM) | MIC ([10]; AARC0353, 20 h): 0.8 µg/mL (≈ 2.84 µM) | MIC ([11]; ATCC15545, 20 h): 0.4 µg/mL (≈ 1.42 µM) | MIC ([12]; AARC0397, 20 h): 0.8 µg/mL (≈ 2.84 µM)

COC(C=CCCC=CC(=O)O)C(O)C(C)C=C(C)C(O)C(C)C(=O)CCCC1CC(=O)NC(=O)C1 (stereo not drawn) [Dorrigocin A]
MIC [1, 15]: > 100 µg/mL | MIC [2, 16]: 25 µg/mL (≈ 49.2 µM) | MIC [3, 17]: > 100 µg/mL | MIC [4, 18]: > 100 µg/mL | MIC [5, 19]: 25 µg/mL (≈ 49.2 µM) | MIC [6, 20]: > 100 µg/mL | MIC [7, 21]: > 100 µg/mL | MIC [8, 22]: > 100 µg/mL | MIC [9, 23]: > 100 µg/mL | MIC [10, 24]: 25 µg/mL (≈ 49.2 µM) | MIC [11, 25]: > 100 µg/mL | MIC [12, 26]: 100 µg/mL (≈ 197 µM) | solubility in methanol and dimethylsulfoxide [13]: readily soluble in methanol and dimethylsulfoxide | dose dependence of morphology reversion ([14]; 48 hours): dose-dependent | relative effectiveness in morphology reversion and reduction in the number of foci ([14]; Dorrigocin A compared with Dorrigocin B): more effective than Dorrigocin B | activity at 0.08 µg/mL ([14]; Mus musculus, NIH3T3, compound dose 0.08 μg/ml, 48 hours, untreated NIH/3T3 K-ras = 100, read-out: Transformed foci percentage): 76% | activity at 0.4 µg/mL [14, 27]: 26% | activity at 10 µg/mL ([14]; Mus musculus, NIH3T3, compound dose 10 μg/ml, 48 hours, untreated NIH/3T3 K-ras = 100, read-out: Transformed foci percentage): 22% | morphology reversion of transformed cells ([14]; 48 hours): caused transformed cells to revert to a morphology resembling that of normal cells

COC(C=CCCC=CC(=O)O)C(O)C(C)C(O)C(C)=CC(C)C(=O)CCCC1CC(=O)NC(=O)C1 (stereo not drawn) [Dorrigocin B]
MIC [1, 15]: 100 µg/mL (≈ 197 µM) | MIC [2, 16]: 12.5 µg/mL (≈ 24.6 µM) | MIC [3, 17]: > 100 µg/mL | MIC [4, 18]: > 100 µg/mL | MIC [5, 19]: 12.5 µg/mL (≈ 24.6 µM) | MIC [6, 20]: > 100 µg/mL | MIC [7, 21]: > 100 µg/mL | MIC [8, 22]: > 100 µg/mL | MIC [9, 23]: 100 µg/mL (≈ 197 µM) | MIC [10, 24]: 25 µg/mL (≈ 49.2 µM) | MIC [11, 25]: > 100 µg/mL | MIC [12, 26]: 50 µg/mL (≈ 98.5 µM) | solubility in methanol and dimethylsulfoxide [13]: readily soluble in methanol and dimethylsulfoxide | dose dependence of morphology reversion ([14]; 48 hours): dose-dependent | activity at 10 µg/mL ([14]; Mus musculus, NIH3T3, 48 h, read-out: Transformed foci percentage): 7% | activity at 0.4 µg/mL [14, 27]: 96% | morphology reversion of transformed cells ([14]; 48 hours): caused transformed cells to revert to a morphology resembling that of normal cells
